{
  "source": "patent US11554131B2",
  "about": "“Mixture of HMOs for treating autoimmune diseases” (Glycom A/S, priority 2018, dated 2023)",
  "key": {"[1]": {"system": "non-obese diabetic (NOD) mouse model of diabetes and Sjögren's Syndrome", "assay": "NOD mouse model: histology of salivary and lacrimal glands and pancreas", "assay_type": "in vivo", "settings": "NOD mice, drinking water, 12 weeks, compared to control mice; for inflammation of the salivary and lacrimal glands (exocrine glands): corresponding to a human dose of about 10 g/day", "description": "The anti-inflammatory effect of HMOs is investigated in the non-obese diabetic (NOD) mouse model of diabetes and Sjögren's Syndrome.\n(§1) The mice are divided into four groups (n=8) with a control group receiving standard tap water, and the three treatment groups receiving supplementation with 2′-FL, mixture of 2′-FL and DFL (in a 4:1 ratio by weight), or 6′-SL in the drinking water, corresponding to a human daily dose of about 10 grams (calculated by metabolic rate and daily water consumption of NOD mice strains).\n(§2) The mice receive the treatment for 12 weeks with bi-weekly water changes. From 12 weeks of age, the blood-glucose levels of the mice are checked weekly. Mice with blood-glucose levels above 7 mmol/l are closely monitored and euthanised (and excluded from the study) if their blood glucose levels increase to ≥12 mmol/l on two consecutive measurements.\n(§3) After 12 weeks treatment the mice are euthanised, and the following are sampled; serum, pancreas, salivary glands, Haarderian lacrimal glands, extraorbital lacrimal glands, as well as caecum and colon content.\nThe salivary and lacrimal glands are analysed by measuring the total area of inflammatory foci in relation to the total gland size on eight (salivary glands) and two (lacrimal glands) haematoxylin and eosin-stained paraffin-embedded sections per mouse. The pancreas is similarly analysed using histological sections scoring a minimum of 25 (preferably 50) islets of Langerhans for the degree of insulitis with a score ranging from 0-3 (0=no insulitis, 1=peri-insulitis, 2=infiltratory insulitis compromising ≤50% of the islet, 3=infiltratory insulitis compromising ≥50% of the islet)."}, "[2]": {"assay": "NOD mouse model: short chain fatty acids in caecum content and serum", "assay_type": "in vivo", "settings": "NOD mice, 12 weeks; for acetate concentration in serum: compared to control animals", "description": "as §1, §2, §3\nCaecum content and serum are used to measure the concentration of short chain fatty acids, namely acetate, propionate and butyrate. Faecal samples obtained at baseline together with colon content sampled after euthanasia are used for 16S rRNA genomic sequencing of the microbiota."}},
  "data": [
    {"compound": "CC(=O)N[C@H]1[C@H]([C@H](O)[C@H](O)CO)O[C@@](OC[C@H]2O[C@@H](O[C@H]3[C@H](O)[C@@H](O)[C@H](O)O[C@@H]3CO)[C@H](O)[C@@H](O)[C@H]2O)(C(=O)O)C[C@@H]1O", "note": "[6′-SL, 6′-sialyllactose]", "values": [
      {"measurement": "insulitis of the pancreas", "setting": "[1]", "value": "reduced"},
      {"measurement": "inflammation of the salivary and lacrimal glands (exocrine glands)", "setting": "[1]", "value": "reduce"},
      {"measurement": "acetate concentration in caecum", "setting": "[2]", "value": "increase"},
      {"measurement": "concentration of caecum butyrate", "setting": "[2]", "value": "increase"},
      {"measurement": "acetate concentration in serum", "setting": "[2]", "value": "increase"}
    ]},
    {"compound": "2′-fucosyllactose [2′-FL]", "values": [
      {"measurement": "insulitis of the pancreas", "setting": "[1]", "value": "reduced"},
      {"measurement": "inflammation of the salivary and lacrimal glands (exocrine glands)", "setting": "[1]", "value": "reduce"},
      {"measurement": "acetate concentration in serum", "setting": "[2]", "value": "increases"}
    ]}
  ]
}
